Holding throughout (assay type): functional
The test system of test [1] is Bacillus subtilis. Briefly: Antibacterial activity against Bacillus subtilis MTCC 441 at 1000 ug/ml after 48 hr by cup-plate method. To be noted: MTCC 441, 48 h, read-out: DIZ.
In test [2] the test system is Bacillus subtilis. Kind of test: Antibacterial activity against Bacillus subtilis MTCC 441 at 250 ug/ml after 48 hr by cup-plate method. To be noted: MTCC 441, 48 h, read-out: DIZ.
The test system of test [3] is Pseudomonas fluorescens. Briefly: Antibacterial activity against Pseudomonas fluorescens MTCC 2421 after 24 to 48 hr by tube dilution method.
For test [4], the system named is Pseudomonas aeruginosa. Briefly: Antibacterial activity against Pseudomonas aeruginosa MTCC 424 after 24 to 48 hr by tube dilution method.
Test [5] has as its system Penicillium chrysogenum. Kind of test: Antifungal activity against Penicillium chrysogenum MTCC 161 at 750 ug/ml after 48 hr by cup-plate method. To be noted: MTCC 161, 48 h, read-out: DIZ.
Test [6] deals with Penicillium chrysogenum. Kind of test: Antifungal activity against Penicillium chrysogenum MTCC 161 at 100 ug/ml after 48 hr by cup-plate method. To be noted: MTCC 161, 48 h, read-out: DIZ.
Test [7] has as its system Aspergillus niger. Kind of test: Antifungal activity against Aspergillus niger MTCC 2546 at 1250 ug/ml after 48 hr by cup-plate method. Particulars: MTCC 2546, 48 h, read-out: DIZ.
Test [8] has as its system Aspergillus niger. Kind of test: Antifungal activity against Aspergillus niger MTCC 2546 at 100 ug/ml after 48 hr by cup-plate method. To be noted: MTCC 2546, 48 h, read-out: DIZ.
The test system of test [9] is Pseudomonas fluorescens. Briefly: Antibacterial activity against Pseudomonas fluorescens MTCC 2421 at 1250 ug/ml after 48 hr by cup-plate method. To be noted: MTCC 2421, 48 h, read-out: DIZ.
Test [10] deals with Escherichia coli. Kind of test: Antibacterial activity against Escherichia coli MTCC 1573 at 750 ug/ml after 48 hr by cup-plate method. To be noted: MTCC 1573, 48 h, read-out: DIZ.
Test [11] relates to Micrococcus luteus. Kind of test: Antibacterial activity against Micrococcus luteus MTCC 1538 at 750 ug/ml after 48 hr by cup-plate method. To be noted: MTCC 1538, 48 h, read-out: DIZ.
In test [12] the test system is Escherichia coli. Kind of test: Antibacterial activity against Escherichia coli MTCC 1573 at 250 ug/ml after 48 hr by cup-plate method. To be noted: MTCC 1573, 48 h, read-out: DIZ.
Test [13] relates to Micrococcus luteus. Briefly: Antibacterial activity against Micrococcus luteus MTCC 1538 at 100 ug/ml after 48 hr by cup-plate method. Particulars: MTCC 1538, 48 h, read-out: DIZ.
Test [14] concerns Bacillus pumilus. Briefly: Antibacterial activity against Bacillus pumilus MTCC 1456 at 1250 ug/ml after 48 hr by cup-plate method. To be noted: MTCC 1456, 48 h, read-out: DIZ.
In test [15] the test system is Staphylococcus aureus. Briefly: Antibacterial activity against Staphylococcus aureus MTCC 1430 at 250 ug/ml after 48 hr by cup-plate method. Particulars: MTCC 1430, 48 h, read-out: DIZ.
Test [16] deals with Staphylococcus aureus. Briefly: Antibacterial activity against Staphylococcus aureus MTCC 1430 at 100 ug/ml after 48 hr by cup-plate method. Particulars: MTCC 1430, 48 h, read-out: DIZ.
For test [17], the system named is Pseudomonas aeruginosa. Kind of test: Antibacterial activity against Pseudomonas aeruginosa MTCC 424 at 1000 ug/ml after 48 hr by cup-plate method. Particulars: MTCC 424, 48 h, read-out: DIZ.

SMILES strings stand for the structures. Converted amounts (≈) assume the structure as drawn.

On to `O=[N+]([O-])c1ccc(C2CC(c3cccc4ccccc34)=NN2)cc1` (configuration not stated), for which the results for the zone of inhibition at 1000 µg/mL in test [1] and in [17] were 16 mm and 13 mm, respectively. The zone of inhibition at 250 µg/mL in test [2] was found to be 12 mm; in [12], 10 mm; in test [15] it was 10 mm. The MIC (commonly the least concentration at which growth counts as inhibited) in [3] is 150 µg/mL (≈ 473 µM); in test [4], 30 µg/mL (≈ 94.5 µM). The values for the zone of inhibition at 750 µg/mL in [5], in test [10] and in [11] were 14 mm, 13 mm and 12 mm, respectively. Also, the zone of inhibition at 100 µg/mL in [6] was 8 mm; in [8] it was 8 mm; in test [13], 9 mm; in test [16], 9 mm. In addition, the zone of inhibition at 1250 µg/mL in test [7] turned out to be 18 mm; in [9] it was 17 mm; in [14] it was 22 mm.
As to `O=[N+]([O-])c1ccc(C2CC(c3cccc4ccccc34)=NN2c2ccccc2)cc1` (configuration not stated), the values for the zone of inhibition at 1000 µg/mL in [1] and in test [17] were 19 mm and 17 mm, respectively. Moreover, the zone of inhibition at 250 µg/mL in test [2] was 14 mm; in test [12], 10 mm; in test [15], 10 mm. Further, the MIC in [3] is 30 µg/mL (≈ 76.2 µM); in test [4] it was 50 µg/mL (≈ 127 µM). Also, the zone of inhibition at 750 µg/mL in test [5] is 15 mm; in [10], 13 mm; in [11], 11 mm. The zone of inhibition at 100 µg/mL in test [6] and in test [8] was 10 mm in each case. Besides, the values for the zone of inhibition at 1250 µg/mL in [7], in test [9] and in [14] were 23 mm, 19 mm and 18 mm, respectively.
With `O=[N+]([O-])c1ccc(C2CC(c3cccc4ccccc34)=NN2c2ccc([N+](=O)[O-])cc2)cc1` (configuration not stated), the results for the zone of inhibition at 1000 µg/mL in test [1] and in test [17] were 17 mm and 16 mm, respectively. For the same compound, the zone of inhibition at 250 µg/mL in test [2] came to 12 mm; in test [12] it was 11 mm; in test [15] it was 9 mm. The MIC in test [3] and in test [4] was 30 µg/mL (≈ 68.4 µM) each time. Moreover, the zone of inhibition at 750 µg/mL in test [5] amounted to 14 mm; in [10], 13 mm; in test [11], 12 mm. Also, the results for the zone of inhibition at 100 µg/mL in test [6] and in [8] were 9 mm and 12 mm, respectively. Further, the zone of inhibition at 1250 µg/mL in test [7] is 25 mm; in test [9], 21 mm; in [14] it was 20 mm.
`NC(=S)N1N=C(c2cccc3ccccc23)CC1c1ccc([N+](=O)[O-])cc1` (configuration not stated): the zone of inhibition at 1000 µg/mL in [1] and in test [17] was 19 mm throughout. Moreover, the zone of inhibition at 250 µg/mL in [2] is 11 mm; in test [12], 9 mm; in test [15] it was 9 mm. In addition, the MIC was determined as 30 µg/mL (≈ 79.7 µM) in test [3] and 50 µg/mL (≈ 133 µM) in test [4]. The zone of inhibition at 750 µg/mL in test [5] is 19 mm; in [10], 14 mm; in test [11] it was 14 mm. For the same compound, the zone of inhibition at 100 µg/mL in test [6] and in [8] was 10 mm each time. The values for the zone of inhibition at 1250 µg/mL in [7], in [9] and in [14] were 26 mm, 24 mm and 21 mm, respectively.
With `O=[N+]([O-])c1ccc(C2CC(c3cccc4ccccc34)=NN2c2ccccc2[N+](=O)[O-])cc1` (configuration not stated), the zone of inhibition at 1000 µg/mL is 16 mm in test [1] and 17 mm in [17]. The values for the zone of inhibition at 250 µg/mL in test [2], in test [12] and in test [15] were 13 mm, 10 mm and 9 mm, respectively. Further, the MIC was determined as 30 µg/mL (≈ 68.4 µM) in test [3] and 150 µg/mL (≈ 342 µM) in test [4]. Further, the zone of inhibition at 750 µg/mL amounted to 20 mm in [5], 13 mm in test [10] and 13 mm in test [11]. In addition, the zone of inhibition at 100 µg/mL in test [6] was found to be 13 mm; in test [8] it was 10 mm. For the same compound, the values for the zone of inhibition at 1250 µg/mL in test [7], in [9] and in test [14] were 25 mm, 24 mm and 25 mm, respectively.

The values above are taken from ChEMBL document CHEMBL3044945, “Synthesis of 1,3,5-trisubstituted pyrazoline nucleus containing compounds and screening for antimicrobial activity” (2012).
